Measured values reported in BindingDB's records for doi:10.1021/jm990614i (Harvard Medical School, 2000).

Target: Aldehyde dehydrogenase, mitochondrial (Mesocricetus auratus)
Experiment: Inhibition of Hamster Liver mitochondrial ALDH-2

Which IC50 does the source give for `CCOc1ccc2c(=O)c(-c3ccc(O)cc3)coc2c1` [7-Ethoxy-3-(4-hydroxy-phenyl)-chromen-4-one] here?
Its IC50 is 40 nM.

For `C=CCOc1ccc2c(=O)c(-c3ccc(O)cc3)coc2c1` [7-Allyloxy-3-(4-hydroxy-phenyl)-chromen-4-one], which IC50 is on record?
Its IC50 is 800 nM.

With `O=C(O)CCCCCCCCCOc1ccc2c(=O)c(-c3ccc(O)cc3)coc2c1` [10-(3-(4-hydroxyphenyl)-4-oxo-4H-chromen-7-yloxy)decanoic acid] as the compound, how does the IC50 read?
The IC50 was 4 nM.

For `O=C(O)CCCCCCOc1ccc2c(=O)c(-c3ccc(O)cc3)coc2c1` [7-[3-(4-Hydroxy-phenyl)-4-oxo-4H-chromen-7-yloxy]-heptanoic acid], which IC50 is on record?
The IC50 was 9 nM.

With `O=c1c(-c2ccc(O)cc2)coc2cc(OCCC3OCCCO3)ccc12` [7-(2-[1,3]Dioxan-2-yl-ethoxy)-3-(4-hydroxy-phenyl)-chromen-4-one] as the compound, how does the IC50 read?
The IC50 was 400 nM.

Target: Aldehyde dehydrogenase, mitochondrial (Mesocricetus auratus)
Experiment: Compound was evaluated for the inhibition of Hamster Liver mitochondrial ALDH-2

With `O=c1c(-c2ccc(O)cc2)coc2cc(OCC(O)CO)ccc12` (stereo unspecified) [7-(2,3-Dihydroxy-propoxy)-3-(4-hydroxy-phenyl)-chromen-4-one] as the compound, how does the IC50 read?
Its IC50 is 100 nM.
